Experimental data taken from PMC6973051, “Proline‐Rich Peptides with Improved Antimicrobial Activity against E. coli, K. pneumoniae, and A. baumannii” (Chemmedchem, 2019).
Ends that are not written are not given here.

Each substance was assayed on E. coli BW25113. Settings: BW25113, 18 h.
Format: cell-based, Escherichia coli
Excerpt: The following bacterial strains were used: Escherichia coli BW25113, E. coli BW25113ΔsbmA (JW0368‐1, KEIO collection21); Acinetobacter baumannii ATCC 19606, Klebsiella pneumoniae ATCC 700603, Pseudomonas aeruginosa ATCC 27853 and Staphylococcus aureus ATCC 25923. The pathogenic E. coli EURL‐VTEC A07, E. coli EURL‐VTEC C07, E. coli SSI‐NN14, E. coli EA22, E. coli SSI‐OO15 and E. coli C679‐12 strains were generously provided by the European Union Reference Laboratory for E. coli, Department of Food Safety, Nutrition and Veterinary Public Health, Istituto Superiore di Sanità, Rome, Italy. All the strains were grown overnight in Müller‐Hinton broth (MHB, Difco) at 37 °C, with shaking (140 rpm). The day after, the overnight bacterial cultures were diluted approx. 1 : 40 in fresh MHB and incubated at 37 °C with shaking (140 rpm) until an OD600nm of ≈0.3 was reached. E. coli BW25113ΔsbmA was grown in the presence of 50 μg mL^−1 kanamycin.
Peptides were diluted in 100 μL of MHB to the concentration of 128 μM, dispensed in the first wells of a 96‐wells microtiter plate (round‐bottom) and serially two‐fold diluted with MHB into successive wells in a final volume of 50 μl. Subsequently, 50 μL of a bacterial suspension (5×10^5 CFU mL^−1) were added to each well, halving the final concentration of bacteria and peptides. Bacteria were added to MHB only as bacterial growth‐control, whereas 100 μl of MHB were used to check the medium sterility. The plate was incubated overnight at 37 °C (≈18 hours) and sealed with parafilm to minimise evaporation. The MIC was calculated as the first clear well without bacterial growth. If barely detectable growth was present, the OD600nm of the plate was measured by a multiplate reader Tecan (software Sunrise). The MIC was then calculated as the well whose OD620 was≤1 % of that of the untreated growth control.

AFRPPIRRPPIRPPFYPG-NH2 [R1A] was tested. Which MIC did it give?
Its MIC is 48 µM.

How did the MIC turn out when EFRPPIRRPPIRPPFYPG-NH2 [R1E] was run?
Its MIC is greater than 64 µM.

For FFRPPIRRPPIRPPFYPG-NH2 [R1F], which MIC is on record?
The MIC was 64 µM.

GFRPPIRRPPIRPPFYPG-NH2 [R1G] was tested. Which MIC did it give?
Its MIC is 32 µM.

With PFRPPIRRPPIRPPFYPG-NH2 [R1P] as the substance, how does the MIC read?
The MIC was 64 µM.

With “RARPPIRRPPIRPPFYPG-NH2 (C-terminus assumed) [F2A]” as the substance, how does the MIC read?
Its MIC is 32 µM.

With “RERPPIRRPPIRPPFYPG-NH2 (C-terminus assumed) [F2E]” as the substance, how does the MIC read?
Its MIC is greater than 64 µM.

How did the MIC turn out when RFAPPIRRPPIRPPFYPG-NH2 [R3A] was run?
The MIC was 64 µM.

Which MIC does the source give for RFEPPIRRPPIRPPFYPG-NH2 [R3E] here?
Its MIC is greater than 64 µM.

For RFFPPIRRPPIRPPFYPG-NH2 [R3F], which MIC is on record?
The MIC was 64 µM.

Which MIC does the source give for RFGPPIRRPPIRPPFYPG-NH2 [R3G] here?
The MIC was 64 µM.

Which MIC does the source give for RFPPPIRRPPIRPPFYPG-NH2 [R3P] here?
The MIC was 64 µM.

“RFRAPIRRPPIRPPFYPG-NH2 (C-terminus assumed) [P4A]” was tested. Which MIC did it give?
The MIC was 24 µM.

Which MIC does the source give for “RFREPIRRPPIRPPFYPG-NH2 (C-terminus assumed) [P4E]” here?
Its MIC is 64 µM.

With “RFRFPIRRPPIRPPFYPG-NH2 (C-terminus assumed) [P4F]” as the substance, how does the MIC read?
The MIC was 8 µM.

Which MIC does the source give for “RFRGPIRRPPIRPPFYPG-NH2 (C-terminus assumed) [P4G]” here?
The MIC was 8 µM.

How did the MIC turn out when “RFRPAIRRPPIRPPFYPG-NH2 (C-terminus assumed) [P5A]” was run?
Its MIC is 64 µM.

With “RFRPEIRRPPIRPPFYPG-NH2 (C-terminus assumed) [P5E]” as the substance, how does the MIC read?
The MIC was greater than 64 µM.

With “RFRPFIRRPPIRPPFYPG-NH2 (C-terminus assumed) [P5F]” as the substance, how does the MIC read?
Its MIC is 32 µM.

For “RFRPGIRRPPIRPPFYPG-NH2 (C-terminus assumed) [P5G]”, which MIC is on record?
Its MIC is greater than 64 µM.

For “RFRPPARRPPIRPPFYPG-NH2 (C-terminus assumed) [I6A]”, which MIC is on record?
Its MIC is 64 µM.

“RFRPPERRPPIRPPFYPG-NH2 (C-terminus assumed) [I6E]” was tested. Which MIC did it give?
The MIC was greater than 64 µM.

How did the MIC turn out when “RFRPPFRRPPIRPPFYPG-NH2 (C-terminus assumed) [I6F]” was run?
The MIC was 16 µM.

How did the MIC turn out when “RFRPPGRRPPIRPPFYPG-NH2 (C-terminus assumed) [I6G]” was run?
The MIC was greater than 64 µM.

RFRPPIARPPIRPPFYPG-NH2 [R7A] was tested. Which MIC did it give?
The MIC was greater than 64 µM.

How did the MIC turn out when RFRPPIERPPIRPPFYPG-NH2 [R7E] was run?
The MIC was greater than 64 µM.

RFRPPIFRPPIRPPFYPG-NH2 [R7F] was tested. Which MIC did it give?
The MIC was 32 µM.

For RFRPPIGRPPIRPPFYPG-NH2 [R7G], which MIC is on record?
The MIC was greater than 64 µM.

RFRPPIPRPPIRPPFYPG-NH2 [R7P] was tested. Which MIC did it give?
The MIC was greater than 64 µM.

Which MIC does the source give for RFRPPIRAPPIRPPFYPG-NH2 [R8A] here?
Its MIC is greater than 64 µM.

RFRPPIREPPIRPPFYPG-NH2 [R8E] was tested. Which MIC did it give?
Its MIC is greater than 64 µM.

RFRPPIRFPPIRPPFYPG-NH2 [R8F] was tested. Which MIC did it give?
Its MIC is greater than 64 µM.

RFRPPIRGPPIRPPFYPG-NH2 [R8G] was tested. Which MIC did it give?
The MIC was greater than 64 µM.

How did the MIC turn out when RFRPPIRPPPIRPPFYPG-NH2 [R8P] was run?
Its MIC is greater than 64 µM.

“RFRPPIRRAPIRPPFYPG-NH2 (C-terminus assumed) [P9A]” was tested. Which MIC did it give?
The MIC was greater than 64 µM.

Which MIC does the source give for “RFRPPIRREPIRPPFYPG-NH2 (C-terminus assumed) [P9E]” here?
Its MIC is greater than 64 µM.

For “RFRPPIRRFPIRPPFYPG-NH2 (C-terminus assumed) [P9F]”, which MIC is on record?
Its MIC is 16 µM.

Which MIC does the source give for “RFRPPIRRGPIRPPFYPG-NH2 (C-terminus assumed) [P9G]” here?
The MIC was greater than 64 µM.

How did the MIC turn out when “RFRPPIRRPAIRPPFYPG-NH2 (C-terminus assumed) [P10A]” was run?
The MIC was greater than 64 µM.

Which MIC does the source give for “RFRPPIRRPEIRPPFYPG-NH2 (C-terminus assumed) [P10E]” here?
The MIC was greater than 64 µM.

How did the MIC turn out when RFRPPIRRPFIRPPFYPG-NH2 [P10F] was run?
The MIC was 64 µM.

RFRPPIRRPGIRPPFYPG-NH2 [P10G] was tested. Which MIC did it give?
Its MIC is greater than 64 µM.

“RFRPPIRRPPARPPFYPG-NH2 (C-terminus assumed) [I11A]” was tested. Which MIC did it give?
Its MIC is greater than 64 µM.

“RFRPPIRRPPERPPFYPG-NH2 (C-terminus assumed) [I11E]” was tested. Which MIC did it give?
The MIC was greater than 64 µM.

Which MIC does the source give for “RFRPPIRRPPFRPPFYPG-NH2 (C-terminus assumed) [I11F]” here?
Its MIC is 32 µM.

For “RFRPPIRRPPGRPPFYPG-NH2 (C-terminus assumed) [I11G]”, which MIC is on record?
The MIC was greater than 64 µM.

How did the MIC turn out when RFRPPIRRPPIAPPFYPG-NH2 [R12A] was run?
The MIC was greater than 64 µM.

Which MIC does the source give for RFRPPIRRPPIEPPFYPG-NH2 [R12E] here?
The MIC was greater than 64 µM.

For RFRPPIRRPPIFPPFYPG-NH2 [R12F], which MIC is on record?
Its MIC is greater than 64 µM.

For RFRPPIRRPPIGPPFYPG-NH2 [R12G], which MIC is on record?
Its MIC is greater than 64 µM.

With RFRPPIRRPPIPPPFYPG-NH2 [R12P] as the substance, how does the MIC read?
Its MIC is greater than 64 µM.

With RFRPPIRRPPIRAPFYPG-NH2 [P13A] as the substance, how does the MIC read?
The MIC was greater than 64 µM.

For RFRPPIRRPPIREPFYPG-NH2 [P13E], which MIC is on record?
The MIC was greater than 64 µM.

How did the MIC turn out when RFRPPIRRPPIRFPFYPG-NH2 [P13F] was run?
Its MIC is 32 µM.

With RFRPPIRRPPIRGPFYPG-NH2 [P13G] as the substance, how does the MIC read?
Its MIC is greater than 64 µM.

For RFRPPIRRPPIRPAFYPG-NH2 [P14A], which MIC is on record?
Its MIC is greater than 64 µM.

For RFRPPIRRPPIRPEFYPG-NH2 [P14E], which MIC is on record?
The MIC was greater than 64 µM.

How did the MIC turn out when RFRPPIRRPPIRPFFYPG-NH2 [P14F] was run?
The MIC was 32 µM.

With RFRPPIRRPPIRPGFYPG-NH2 [P14G] as the substance, how does the MIC read?
The MIC was greater than 64 µM.

How did the MIC turn out when “RFRPPIRRPPIRPPAYPG-NH2 (C-terminus assumed) [F15A]” was run?
The MIC was 64 µM.

“RFRPPIRRPPIRPPEYPG-NH2 (C-terminus assumed) [F15E]” was tested. Which MIC did it give?
Its MIC is greater than 64 µM.

Which MIC does the source give for RFRPPIRRPPIRPPFAPG-NH2 [Y16A] here?
Its MIC is 64 µM.

For RFRPPIRRPPIRPPFEPG-NH2 [Y16E], which MIC is on record?
Its MIC is greater than 64 µM.

RFRPPIRRPPIRPPFFPG-NH2 [Y16F] was tested. Which MIC did it give?
The MIC was 16 µM.

RFRPPIRRPPIRPPFGPG-NH2 [Y16G] was tested. Which MIC did it give?
Its MIC is greater than 64 µM.

Which MIC does the source give for RFRPPIRRPPIRPPFPPG-NH2 [Y16P] here?
The MIC was 64 µM.

How did the MIC turn out when RFRPPIRRPPIRPPFRPG-NH2 [Y16R] was run?
Its MIC is 16 µM.

Which MIC does the source give for RFRPPIRRPPIRPPFSPG-NH2 [Y16S] here?
Its MIC is greater than 64 µM.

With RFRPPIRRPPIRPPFYAG-NH2 [P17A] as the substance, how does the MIC read?
The MIC was 16 µM.

RFRPPIRRPPIRPPFYEG-NH2 [P17E] was tested. Which MIC did it give?
The MIC was greater than 64 µM.

How did the MIC turn out when RFRPPIRRPPIRPPFYFG-NH2 [P17F] was run?
Its MIC is 16 µM.

Which MIC does the source give for RFRPPIRRPPIRPPFYGG-NH2 [P17G] here?
Its MIC is 16 µM.

How did the MIC turn out when “RFRPPIRRPPIRPPFYPG-NH2 [wt (SPOT form), reference compound]” was run?
The MIC was 32 µM.

Which MIC does the source give for “RFRPPIRRPPIRPPFYRG-NH2 [258 (SPOT form)]” here?
Its MIC is 8 µM.

RFRPPIRRPPIRPPFYSG-NH2 [P17S] was tested. Which MIC did it give?
The MIC was 16 µM.

Which MIC does the source give for “RFRPPIRRPPIRPPGYPG-NH2 (C-terminus assumed) [F15G]” here?
The MIC was 32 µM.

Which MIC does the source give for “RFRPPIRRPPIRPPPYPG-NH2 (C-terminus assumed) [F15P]” here?
Its MIC is greater than 64 µM.

For “RFRPPIRRPPIRPPRYPG-NH2 (C-terminus assumed) [F15R]”, which MIC is on record?
The MIC was 32 µM.

“RFRPPIRRPPIRPPSYPG-NH2 (C-terminus assumed) [F15S]” was tested. Which MIC did it give?
Its MIC is 64 µM.

Which MIC does the source give for RFRPPIRRPPIRPRFYPG-NH2 [P14R] here?
The MIC was 32 µM.

With RFRPPIRRPPIRPSFYPG-NH2 [P14S] as the substance, how does the MIC read?
Its MIC is 64 µM.

With RFRPPIRRPPIRPWFYPG-NH2 [P14W] as the substance, how does the MIC read?
Its MIC is 16 µM.

For RFRPPIRRPPIRRPFYPG-NH2 [P13R], which MIC is on record?
The MIC was 64 µM.

For RFRPPIRRPPIRSPFYPG-NH2 [P13S], which MIC is on record?
The MIC was 64 µM.

RFRPPIRRPPIRWPFYPG-NH2 [P13W] was tested. Which MIC did it give?
The MIC was 16 µM.

RFRPPIRRPPISPPFYPG-NH2 [R12S] was tested. Which MIC did it give?
Its MIC is greater than 64 µM.

Which MIC does the source give for RFRPPIRRPPIWPPFYPG-NH2 [R12W] here?
Its MIC is greater than 64 µM.

With “RFRPPIRRPPPRPPFYPG-NH2 (C-terminus assumed) [I11P]” as the substance, how does the MIC read?
The MIC was greater than 64 µM.

Same assay, conditions: single-substitution library by SPOT‐synthesis (unpurified); MHB, ≈18 hours, 37 °C; median of n≥3

How did the MIC turn out when “RFRPPIRRPPIRPPFYPG-NH2 [wt (SPOT form), reference compound]” was run?
The MIC was 16 µM.
